# In US3951979A, “New amino propanediol derivatives” (priority 1972, dated 1976):
# Read-outs that look alike come from different tables or passages of the source.
# Assays:
# [1] = system: coughing spasms; test: Antitussive effect: inhibition of coughing spasms induced by stimulating a laryngeal nerve; type: in vivo, cat; conditions: for Activity of the product (antitussive) / Duration of activity (antitussive): cat; for Dose of pentoxyverine necessary for comparable antitussive effect, relative to compound: versus pentoxyverine
# Description: Finally, the compounds of the invention having shown themselves to be powerful antitussive agents, the results of comparative tests for this activity on four compounds of the invention and on pentoxyverine, one of the most powerful antitussive agents at present known, are given below in Table V.
# The technique used was the method of R. Domenjoz, Arch. Exp. Pathol. V. Pharmacol. Volume 215, page 19 (1952)
# The cat is anaesthetized with ether and tracheotomised.
# Coughing spasms are induced by stimulating a laryngeal nerve. After the product to be tested has been administered, fresh stimulation enables the inhibition achieved and its duration to be assessed.
# [2] = system: carotid arterial blood-pressure; test: Effect on carotid arterial blood-pressure of the dog anaesthetised with chloralose; type: in vivo; conditions: for Hypotensive effect (in words): in vivo
# Experimental: EFFECT ON ARTERIAL BLOOD-PRESSURE This was measured on the dog anaesthetised with chloralose by recording both the extent of, and the duration of, the effect on carotid arterial blood-pressure.
# [3] = Acute toxicity, LD50, oral administration; conditions: in vivo, mouse
# Experimental: 1. Acute toxicity -- LD50 -- Oral administration
# This was determined upon the mouse by oral administration, the LD50 value being calculated by the method of B. Behrens & C. Karber (Arch F. Exp. Patho. Pharm., volume 177, page 379 (1935) )
# [4] = system: rat; test: Cataleptic effect, homolateral crossed paws method; type: in vivo; set-up: Catalepsy: unit not given here; conditions: for Catalepsy / Catalepsy, result at stated dose: I.P.; for Cataleptic effect (in words): in vivo
# [5] = system: cerebral dopamine; test: Biochemical dopamine effect on the brain (spectrofluorometric); type: in vivo, mouse (strain OF1); conditions: mouse; for Cerebral dopamine / Cerebral dopamine (result in words): I.P.; for Cerebral dopamine (result in words): dose not given
# Experimental: 7. Biochemical dopamine effect on the brain This effect is measured by spectrofluorometric means using the Jobin-Yvon Bearn apparatus, on the brains of mice of the strain OF1.
# [6] = system: mebubarbital-induced sleep; test: Potentiation of an inactive dose of a barbiturate (mebubarbital); type: in vivo; conditions: for ED50: 0.25 h, read-out: Barbiturates (potentiation), ED50
# [7] = system: apomorphine-induced vomiting; test: Anti-emetic effect: apomorphine-induced attempted vomits in beagle dogs; type: in vivo; conditions: dog
# Experimental: The anti-emetic effect, which may constitute a contributory factor to the main effect, was also systematically tested in accordance with the following procedure:
# Dogs of the beagle breed were split up at random into groups of 3 animals. After fasting for 24 hours, the animals were given an empty capsule then, one hour later, received a sub-cutaneous injection of apomorphine hydrochloride (0.3 mg/kg). The number of attempted vomits during 45 minutes was then counted.
# After 15 days rest, the same animals were given a capsule identical to that given on the first occasion but containing the product to be tested. The injection of apomorphine was carried out under the same conditions as for the control experiment.
# [8] = system: apomorphine; test: Anti-apomorphic effect in the rat; type: in vivo; set-up: Anti-apomorphine: unit not given here; conditions: for Anti-apomorphine: apomorphine 0.6 mg/kg; for Activity in apomorphine stereotypes (in words): in vivo
# [9] = system: central nervous system; test: Effect on the central nervous system, overall psycholeptic/neuroleptic spectrum; conditions: in vivo
# Description: EFFECT ON THE CENTRAL NERVOUS SYSTEM
# This effect was observed by means of a set of tests of which the most significant are summarised below: […]
# [10] = Canis lupus familiaris, 1.25 mg/kg intravenous
# [11] = oral administration, sleep in 50% of animals 15 minutes after product
compound,measurement,setting,value
C#CC1(OCC(O)CN2CCN(CC(OCC)c3ccccc3)CC2)CCCCC1 (stereo not shown) [compound 22],Activity of the product (antitussive),[1]; 10 mg/kg body weight,75%
same,Duration of activity (antitussive),[1]; 10 mg/kg body weight,50 min
same,"Dose of pentoxyverine necessary for comparable antitussive effect, relative to compound",[1],five times greater
C#CC(C)(C)OCC(O)CN1CCN(c2ccccc2)CC1 (stereo not shown) [Compound No. 1],Duration of activity (blood-pressure),[2]; 1.25 mg/kg intravenous,≥ 35 min
same,change in vivo at 1.25 mg/kg,[2]; [10],-20.3%
C#CC(C)(C)OCC(O)CN1CCN(c2ccc(F)cc2)CC1 (stereo not shown) [compound 5],Duration of activity (blood-pressure),[2]; 1.25 mg/kg intravenous,≥ 35 min
same,change in vivo at 1.25 mg/kg,[2]; [10],-19.5%
C#CC(C)(CC)OCC(O)CN1CCN(c2ccc(F)cc2)CC1 (stereo not shown) [compound 9],LD50,[3],> 600 mg/kg
same,Catalepsy,[4],60
same,Cerebral dopamine,[5]; at 60 mg/kg,-50%
same,ED50,[6]; [11],> 100 mg/kg
same,Duration of activity (blood-pressure),[2]; 1.25 mg/kg intravenous,20 min
same,change in vivo at 1.25 mg/kg,[2]; [10],-27%
C#CC(C)(C)OCC(O)CN1CCN(CC(OC)c2ccccc2)CC1 (stereo not shown) [compound 23],Activity of the product (antitussive),[1]; 10 mg/kg body weight,31%
same,Duration of activity (antitussive),[1]; 10 mg/kg body weight,25 min
"CCN(CC)CCNC(=O)c1cc(Cl)c(N)cc1OC [Metoclopramide, metoclopramide, reference compound]",Reduction in attempted vomits,[7]; 1 mg/kg subcutaneous,100%
same,Reduction in attempted vomits,[7]; 1.5 mg/kg oral,100%
"CCN(CC)CCOCCOC(=O)C1(c2ccccc2)CCCC1 [Pentoxyverine, pentoxyverine, reference compound]",Activity of the product (antitussive),[1]; 10 mg/kg body weight,45%
same,Duration of activity (antitussive),[1]; 10 mg/kg body weight,30 min
same,Activity of the product (antitussive),[1]; 50 mg/kg body weight,71%
same,Duration of activity (antitussive),[1]; 50 mg/kg body weight,110 min
"O=C(CCCN1CCC(O)(c2ccc(Cl)cc2)CC1)c1ccc(F)cc1 [Haloperidol, haloperidol, reference compound]",LD50,[3],125 mg/kg
same,Catalepsy,[4],1
same,Cerebral dopamine,[5]; at 10 mg/kg,-30%
same,ED50,[6]; po,12 mg/kg
same,Anti-apomorphine,[8]; subcutaneous,0.5
C#CC(C)(CC)OCC(O)CN1CCN(c2ccccc2OC)CC1 (stereo not shown) [compound 18],Sedative effect (in words),[9],non-sedative
same,LD50,[3],> 200 mg/kg
same,"Catalepsy, result at stated dose",[4]; at 40,Inactive
same,Cataleptic effect (in words),[4],non-inducive of catalepsy
same,Cerebral dopamine,[5]; at 20 mg/kg,-24%
same,ED50,[6]; [11],> 25 mg/kg
same,Activity in apomorphine stereotypes (in words),[8],active in apomorphine stereotypes
same,Anti-apomorphine,[8]; subcutaneous,10
C#CC(C)(CC)OCC(O)CN1CCN(c2ccccc2)CC1 (stereo not shown) [Compound No. 3],Neuroleptic/psycholeptic activity (in words),[9],only slightly neuroleptic
same,LD50,[3],> 600 mg/kg
same,"Catalepsy, result at stated dose",[4]; at 40,Inactive
same,Cerebral dopamine,[5]; at 60 mg/kg,-45%
same,ED50,[6]; [11],> 100 mg/kg
same,Duration of activity (blood-pressure),[2]; 1.25 mg/kg intravenous,35 min
same,change in vivo at 1.25 mg/kg,[2]; [10],-21.5%
same,Hypotensive effect (in words),[2],markedly hypotensive
C#CC1(OCC(O)CN2CCN(CC(OC)c3ccccc3)CC2)CCCCC1 (stereo not shown) [compound 21],Activity of the product (antitussive),[1]; 10 mg/kg body weight,54%
same,Duration of activity (antitussive),[1]; 10 mg/kg body weight,20 min
C#CC1(OCC(O)CN2CCN(c3ccccc3)CC2)CCCCC1 (stereo not shown) [Compound No. 2],LD50,[3],> 600 mg/kg
same,Catalepsy,[4],50
same,Cerebral dopamine,[5]; at 40 mg/kg,-33%
same,ED50,[6]; [11],100 mg/kg
same,Anti-apomorphine,[8]; subcutaneous,50
"C#CC1(OCC(O)CN2CCN(c3ccc(F)cc3)CC2)CCCCC1 (stereo not shown) [Compound No. 4, 1-3-(1-ethynyl)cyclohexyloxy-2-hydroxy propyl-4-(4-fluorophenyl)piperazine]",Neuroleptic/psycholeptic activity (in words),[9],fairly full spectrum characteristic of neuroleptic activity
same,Reduction in attempted vomits,[7]; 1 mg/kg subcutaneous,74%
same,LD50,[3],800 mg/kg
same,Catalepsy,[4],20
same,Cerebral dopamine,[5]; at 10 mg/kg,-50%
same,Depletion of cerebral mono-amines (in words),[5]; in vivo,depletion of cerebral mono-amines in a manner reminiscent of reserpine
same,ED50,[6]; [11],20 mg/kg
same,Duration of activity (blood-pressure),[2]; 5 mg/kg intravenous,20 min
same,change in vivo at 5 mg/kg,"[2]; Canis lupus familiaris, 5 mg/kg intravenous",-50%
same,Anti-apomorphine,[8]; O.A.,92
"C#CC(C)(CC)OCC(O)CN1CCN(CC(OCC)c2ccccc2)CC1 (stereo not shown) [Compound No. 25, 1-3-(1-methyl-1-ethynyl)propoxy-2-hydroxy propyl-4-(2-ethoxy-2-phenyl)ethylpiperazine]",Activity of the product (antitussive),[1]; 5 mg/kg body weight,41%
same,Duration of activity (antitussive),[1]; 5 mg/kg body weight,> 35 min
same,Activity of the product (antitussive),[1]; 7.5 mg/kg body weight,49%
same,Duration of activity (antitussive),[1]; 7.5 mg/kg body weight,62 min
same,Activity of the product (antitussive),[1]; 10 mg/kg body weight,71%
same,Duration of activity (antitussive),[1]; 10 mg/kg body weight,80 min
same,"Dose of pentoxyverine necessary for comparable antitussive effect, relative to compound",[1],five times greater
"C[C@](N)(Cc1ccc(O)c(O)c1)C(=O)O [αmethyldopa, reference compound]",Duration of activity (blood-pressure),[2]; 1.25 mg/kg intravenous,95 min
same,change in vivo at 1.25 mg/kg,[2]; [10],-8.7%
C#CC1(OCC(O)CN2CCN(c3ccc(Cl)cc3)CC2)CCCCC1 (stereo not shown) [compound 8],Reduction in attempted vomits,[7]; 5 mg/kg oral,76%
same,LD50,[3],> 600 mg/kg
same,Catalepsy,[4],30
same,Cerebral dopamine,[5]; at 80 mg/kg,-78%
same,ED50,[6]; [11],50 mg/kg
"C#CC1(OCC(O)CN2CCN(c3ccccc3OC)CC2)CCCCC1 (stereo not shown) [Compound No. 20, 1-3-(1-ethynyl)cyclohexyloxy-2-hydroxy-propyl-4-(2-methoxy)phenylpiperazine]",Sedative effect (in words),[9],non-sedative
same,Reduction in attempted vomits,[7]; 1 mg/kg oral,100%
same,Reduction in attempted vomits,[7]; 1 mg/kg subcutaneous,100%
same,Inhibition of the emetic effect of apomorphine compared with metoclopramide,[7]; oral administration,superior to that of metoclopramide
same,Inhibition of the emetic effect of apomorphine compared with metoclopramide,[7]; subcutaneous injection,equal to that of metoclopramide
same,LD50,[3],60 mg/kg
same,"Catalepsy, result at stated dose",[4]; at 20,Inactive
same,Cataleptic effect (in words),[4],non-inducive of catalepsy
same,Cerebral dopamine (result in words),[5],Inactive
same,"Barbiturates (potentiation), ED50",[6]; [11],Inactive
same,Duration of activity (blood-pressure),[2]; 1.25 mg/kg intravenous,≥ 70 min
same,change in vivo at 1.25 mg/kg,[2]; [10],-35.6%
same,Hypotensive effect (in words),[2],especially hypotensive
same,Anti-apomorphine,[8]; I.P.,5
same,Activity in apomorphine stereotypes (in words),[8],active in apomorphine stereotypes
C#CC1(OCC(O)CN2CCN(c3cccc(C(F)(F)F)c3)CC2)CCCCC1 (stereo not shown) [Compound No. 11],Sedative effect (in words),[9],fairly sedative
same,Reduction in attempted vomits,[7]; 10 mg/kg oral,75%
same,LD50,[3],783 mg/kg
same,"Catalepsy, result at stated dose",[4]; at 40,Inactive
same,Cataleptic effect (in words),[4],slightly cataleptic
same,Cerebral dopamine (result in words),[5],Inactive
same,ED50,[6]; [11],90 mg/kg
same,Duration of activity (blood-pressure),[2]; 1.25 mg/kg intravenous,30 min
same,change in vivo at 1.25 mg/kg,[2]; [10],-15%
same,Hypotensive effect (in words),[2],slightly hypotensive
same,Anti-apomorphine,[8]; O.A.,15
same,Activity in apomorphine stereotypes (in words),[8],extremely active in apomorphine stereotypes
